Results published in ChEMBL document CHEMBL3991601, “The target landscape of clinical kinase drugs” (Science, 2017).
The source made the active and inactive calls. Rule as the data show it, for most assays here: actives have a measured Kd and inactives only a lower limit.

Experiments:
Scaffold protein ILK = target: T1, Scaffold protein ILK (Homo sapiens, UniProt Q13418)
T1 sequence (Q13418 whole entry): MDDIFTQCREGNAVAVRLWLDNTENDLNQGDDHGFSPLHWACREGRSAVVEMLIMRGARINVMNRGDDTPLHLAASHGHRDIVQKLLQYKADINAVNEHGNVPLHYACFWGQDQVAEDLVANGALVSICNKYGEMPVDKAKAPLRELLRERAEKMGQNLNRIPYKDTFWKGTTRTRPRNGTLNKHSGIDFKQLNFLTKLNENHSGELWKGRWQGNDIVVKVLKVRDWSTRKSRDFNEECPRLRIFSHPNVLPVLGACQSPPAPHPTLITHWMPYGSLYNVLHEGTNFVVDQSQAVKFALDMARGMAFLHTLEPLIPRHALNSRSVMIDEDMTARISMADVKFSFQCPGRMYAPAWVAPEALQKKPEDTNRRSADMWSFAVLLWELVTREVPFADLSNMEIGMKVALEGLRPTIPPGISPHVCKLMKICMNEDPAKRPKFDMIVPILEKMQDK

[1] = target: Cyclin-dependent kinase 7 (Homo sapiens, UniProt P50613)
Chain of Cyclin-dependent kinase 7 (P50613 whole entry): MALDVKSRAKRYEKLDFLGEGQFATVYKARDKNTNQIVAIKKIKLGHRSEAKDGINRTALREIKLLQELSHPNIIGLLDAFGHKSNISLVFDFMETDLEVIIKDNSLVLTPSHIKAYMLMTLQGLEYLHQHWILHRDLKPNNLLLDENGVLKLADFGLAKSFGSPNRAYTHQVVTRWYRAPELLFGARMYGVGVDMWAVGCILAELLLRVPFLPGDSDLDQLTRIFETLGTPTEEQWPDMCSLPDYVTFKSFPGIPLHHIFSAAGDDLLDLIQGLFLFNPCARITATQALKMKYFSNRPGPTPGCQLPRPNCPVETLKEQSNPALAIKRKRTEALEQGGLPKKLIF

[2] = target: T2, ATP-dependent RNA helicase DDX1 (Homo sapiens, UniProt Q92499)
T2 sequence (Q92499 whole entry): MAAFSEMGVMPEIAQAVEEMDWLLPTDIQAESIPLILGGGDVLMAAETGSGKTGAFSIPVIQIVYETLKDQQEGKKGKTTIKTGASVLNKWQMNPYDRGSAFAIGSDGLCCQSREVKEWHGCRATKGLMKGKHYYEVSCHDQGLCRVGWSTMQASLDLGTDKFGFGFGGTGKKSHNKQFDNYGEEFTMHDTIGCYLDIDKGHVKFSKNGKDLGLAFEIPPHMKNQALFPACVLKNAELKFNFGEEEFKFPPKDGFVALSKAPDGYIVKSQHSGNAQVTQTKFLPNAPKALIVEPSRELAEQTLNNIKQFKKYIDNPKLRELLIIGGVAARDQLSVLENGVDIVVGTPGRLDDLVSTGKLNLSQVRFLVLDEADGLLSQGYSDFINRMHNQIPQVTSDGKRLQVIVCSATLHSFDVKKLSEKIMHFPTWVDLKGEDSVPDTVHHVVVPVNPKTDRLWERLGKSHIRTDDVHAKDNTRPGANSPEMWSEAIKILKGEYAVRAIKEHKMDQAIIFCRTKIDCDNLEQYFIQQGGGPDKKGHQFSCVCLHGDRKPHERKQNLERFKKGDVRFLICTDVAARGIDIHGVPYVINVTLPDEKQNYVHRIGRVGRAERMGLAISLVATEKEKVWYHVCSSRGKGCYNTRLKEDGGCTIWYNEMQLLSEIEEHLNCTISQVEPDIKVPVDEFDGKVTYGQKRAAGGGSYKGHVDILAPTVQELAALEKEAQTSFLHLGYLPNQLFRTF

[3] = target: T3, Serine/threonine-protein kinase Nek3 (Homo sapiens, UniProt P51956)
T3 sequence (P51956 whole entry): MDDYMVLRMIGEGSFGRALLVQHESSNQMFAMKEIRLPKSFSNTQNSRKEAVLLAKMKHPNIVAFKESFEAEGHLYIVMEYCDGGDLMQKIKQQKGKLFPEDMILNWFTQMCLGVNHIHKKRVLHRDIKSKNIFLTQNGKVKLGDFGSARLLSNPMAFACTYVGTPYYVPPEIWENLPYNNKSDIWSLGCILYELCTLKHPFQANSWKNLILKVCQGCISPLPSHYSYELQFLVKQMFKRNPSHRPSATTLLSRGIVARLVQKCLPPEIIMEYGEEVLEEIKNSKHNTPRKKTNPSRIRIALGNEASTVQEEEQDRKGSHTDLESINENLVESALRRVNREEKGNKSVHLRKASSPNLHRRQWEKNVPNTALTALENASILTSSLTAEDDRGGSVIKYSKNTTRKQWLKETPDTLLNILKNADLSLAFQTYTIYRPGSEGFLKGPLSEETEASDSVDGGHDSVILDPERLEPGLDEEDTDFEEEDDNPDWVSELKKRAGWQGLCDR

[4] = target: Serine/threonine-protein kinase 10 (Homo sapiens, UniProt O94804)
Chain of Serine/threonine-protein kinase 10 (O94804 whole entry): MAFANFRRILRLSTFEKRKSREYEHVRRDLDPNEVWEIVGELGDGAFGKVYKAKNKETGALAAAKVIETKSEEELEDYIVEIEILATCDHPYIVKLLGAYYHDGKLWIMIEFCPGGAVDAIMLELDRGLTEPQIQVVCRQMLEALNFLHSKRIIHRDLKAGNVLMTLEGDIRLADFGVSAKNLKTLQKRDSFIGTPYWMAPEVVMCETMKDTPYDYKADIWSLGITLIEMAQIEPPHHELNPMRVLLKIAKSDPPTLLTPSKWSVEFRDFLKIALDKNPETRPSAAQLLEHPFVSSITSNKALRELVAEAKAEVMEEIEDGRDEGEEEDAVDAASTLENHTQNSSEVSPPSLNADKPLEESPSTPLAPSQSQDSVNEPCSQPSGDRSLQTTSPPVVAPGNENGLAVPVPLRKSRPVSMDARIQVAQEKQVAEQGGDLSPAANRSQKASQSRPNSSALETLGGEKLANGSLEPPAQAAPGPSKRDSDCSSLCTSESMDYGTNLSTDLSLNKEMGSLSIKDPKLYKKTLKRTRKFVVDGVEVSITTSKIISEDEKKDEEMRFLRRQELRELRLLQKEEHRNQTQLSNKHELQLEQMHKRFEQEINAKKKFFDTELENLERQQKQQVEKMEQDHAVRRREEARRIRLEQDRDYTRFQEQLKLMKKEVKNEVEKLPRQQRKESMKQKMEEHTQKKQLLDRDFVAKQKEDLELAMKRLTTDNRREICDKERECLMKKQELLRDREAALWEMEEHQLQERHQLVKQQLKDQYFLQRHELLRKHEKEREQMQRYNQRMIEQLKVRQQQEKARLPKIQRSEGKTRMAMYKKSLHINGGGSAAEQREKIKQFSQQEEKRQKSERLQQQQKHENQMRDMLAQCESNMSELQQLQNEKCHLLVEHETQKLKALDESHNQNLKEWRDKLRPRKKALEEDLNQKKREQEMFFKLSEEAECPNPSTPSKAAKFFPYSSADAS

Ephrin type-A receptor 4 = Ephrin type-A receptor 4 (Homo sapiens, UniProt P54764)
Chain of Ephrin type-A receptor 4 (P54764 whole entry): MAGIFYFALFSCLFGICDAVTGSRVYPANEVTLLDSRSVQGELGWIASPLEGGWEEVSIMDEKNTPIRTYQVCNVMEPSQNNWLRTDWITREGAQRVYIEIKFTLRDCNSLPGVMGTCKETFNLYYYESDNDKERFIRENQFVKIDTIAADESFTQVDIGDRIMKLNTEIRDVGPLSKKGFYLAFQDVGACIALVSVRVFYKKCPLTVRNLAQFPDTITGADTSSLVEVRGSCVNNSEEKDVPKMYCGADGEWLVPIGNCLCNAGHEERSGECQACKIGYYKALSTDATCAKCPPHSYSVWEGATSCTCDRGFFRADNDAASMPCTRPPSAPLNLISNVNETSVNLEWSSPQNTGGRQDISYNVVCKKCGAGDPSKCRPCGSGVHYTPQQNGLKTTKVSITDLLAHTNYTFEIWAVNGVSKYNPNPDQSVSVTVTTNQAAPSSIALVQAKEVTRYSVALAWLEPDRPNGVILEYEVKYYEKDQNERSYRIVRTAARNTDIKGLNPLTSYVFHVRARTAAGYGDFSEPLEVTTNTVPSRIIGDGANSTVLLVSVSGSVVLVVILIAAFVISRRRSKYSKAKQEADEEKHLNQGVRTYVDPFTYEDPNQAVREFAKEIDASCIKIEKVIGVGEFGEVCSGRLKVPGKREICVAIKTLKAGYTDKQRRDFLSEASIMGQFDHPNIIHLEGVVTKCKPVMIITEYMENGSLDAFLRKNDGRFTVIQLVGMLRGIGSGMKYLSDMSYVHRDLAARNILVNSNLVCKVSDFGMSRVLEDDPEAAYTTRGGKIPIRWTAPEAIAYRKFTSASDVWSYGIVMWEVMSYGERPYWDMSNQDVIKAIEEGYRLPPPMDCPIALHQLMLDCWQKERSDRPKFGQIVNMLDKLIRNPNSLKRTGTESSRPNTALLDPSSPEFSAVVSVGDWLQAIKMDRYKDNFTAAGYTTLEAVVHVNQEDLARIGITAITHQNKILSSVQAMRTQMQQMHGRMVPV

Pyridoxal kinase = target: T4, Pyridoxal kinase (Homo sapiens, UniProt O00764)
T4 sequence (O00764 whole entry): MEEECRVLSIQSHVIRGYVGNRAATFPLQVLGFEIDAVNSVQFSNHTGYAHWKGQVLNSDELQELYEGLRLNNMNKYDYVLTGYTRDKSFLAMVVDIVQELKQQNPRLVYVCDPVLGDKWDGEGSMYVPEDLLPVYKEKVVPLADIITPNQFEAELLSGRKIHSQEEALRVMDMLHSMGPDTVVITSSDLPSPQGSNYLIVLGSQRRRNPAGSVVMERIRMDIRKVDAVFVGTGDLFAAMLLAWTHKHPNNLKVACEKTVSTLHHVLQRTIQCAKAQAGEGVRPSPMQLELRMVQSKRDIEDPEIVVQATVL

[5] = target: T5, Interleukin-1 receptor-associated kinase 4 (Homo sapiens, UniProt Q9NWZ3)
T5 sequence (Q9NWZ3 whole entry): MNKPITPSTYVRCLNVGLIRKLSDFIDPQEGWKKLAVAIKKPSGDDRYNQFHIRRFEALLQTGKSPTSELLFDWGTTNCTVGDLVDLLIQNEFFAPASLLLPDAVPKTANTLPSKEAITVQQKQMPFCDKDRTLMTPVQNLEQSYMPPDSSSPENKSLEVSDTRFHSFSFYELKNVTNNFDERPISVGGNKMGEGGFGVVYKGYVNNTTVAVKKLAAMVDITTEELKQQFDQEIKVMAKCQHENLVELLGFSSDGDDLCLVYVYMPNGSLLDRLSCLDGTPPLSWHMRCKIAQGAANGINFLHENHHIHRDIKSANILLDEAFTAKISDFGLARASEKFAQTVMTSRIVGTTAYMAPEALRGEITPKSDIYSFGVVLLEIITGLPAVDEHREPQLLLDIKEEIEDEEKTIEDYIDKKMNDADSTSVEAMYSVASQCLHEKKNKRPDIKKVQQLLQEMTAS

Wee1-like protein kinase = Wee1-like protein kinase (Homo sapiens, UniProt P30291)
Chain of Wee1-like protein kinase (P30291 whole entry): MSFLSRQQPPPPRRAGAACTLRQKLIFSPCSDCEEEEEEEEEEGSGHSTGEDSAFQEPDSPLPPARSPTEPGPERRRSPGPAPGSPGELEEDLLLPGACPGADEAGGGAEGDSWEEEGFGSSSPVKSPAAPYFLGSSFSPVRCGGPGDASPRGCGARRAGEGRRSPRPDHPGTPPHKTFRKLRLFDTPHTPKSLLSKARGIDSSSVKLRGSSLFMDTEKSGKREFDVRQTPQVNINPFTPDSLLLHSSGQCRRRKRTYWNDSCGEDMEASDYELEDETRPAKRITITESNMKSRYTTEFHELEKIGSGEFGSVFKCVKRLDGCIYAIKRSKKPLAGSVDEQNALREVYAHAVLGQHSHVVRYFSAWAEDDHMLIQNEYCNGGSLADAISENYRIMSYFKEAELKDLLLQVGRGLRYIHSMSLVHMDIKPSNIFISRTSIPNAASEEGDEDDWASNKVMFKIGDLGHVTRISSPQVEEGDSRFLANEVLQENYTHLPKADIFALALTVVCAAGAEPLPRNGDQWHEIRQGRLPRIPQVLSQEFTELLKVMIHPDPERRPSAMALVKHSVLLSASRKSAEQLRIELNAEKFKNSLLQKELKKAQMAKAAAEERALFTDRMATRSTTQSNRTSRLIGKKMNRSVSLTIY
Also: in the data inactive means no Kd found up to 30 µM.

Structure (SMILES)	Kd (Scaffold protein ILK)	Kd [1]	Kd [2]	Kd [3]	Kd [4]	Kd (Ephrin type-A receptor 4)	Kd (Pyridoxal kinase)	Kd [5]	Kd (Wee1-like protein kinase)
COc1ccc(-c2ccc3c(N4CCOC[C@@H]4C)nc(N4CCOC[C@@H]4C)nc3n2)cc1CO [AZD-8055]	> 30 µM (inactive)	> 30 µM (inactive)	> 30 µM (inactive)	> 30 µM (inactive)	> 30 µM (inactive)	> 30 µM (inactive)	> 30 µM (inactive)	> 30 µM (inactive)	> 30 µM (inactive)
COc1cc2nccc(Oc3ccc(NC(=O)Nc4cc(C)on4)c(Cl)c3)c2cc1OC [TIVOZANIB]	> 30 µM (inactive)	> 30 µM (inactive)	> 30 µM (inactive)	> 30 µM (inactive)	4.62 µM (active)	5.56 µM (active)	> 30 µM (inactive)	> 30 µM (inactive)	> 30 µM (inactive)
C[C@@H](Nc1cc(F)cc(F)c1)c1cc(C(=O)N(C)C)cc2c(=O)cc(N3CCOCC3)oc12 [AZD-8186]	> 30 µM (inactive)	> 30 µM (inactive)	> 30 µM (inactive)	> 30 µM (inactive)	> 30 µM (inactive)	> 30 µM (inactive)	> 30 µM (inactive)	> 30 µM (inactive)	> 30 µM (inactive)
CNC(=O)CN1CCC(Oc2cc3c(Nc4cccc(Cl)c4F)ncnc3cc2OC)CC1 [SAPITINIB]	> 30 µM (inactive)	> 30 µM (inactive)	> 30 µM (inactive)	> 30 µM (inactive)	> 30 µM (inactive)	7.4 µM (active)	> 30 µM (inactive)	> 30 µM (inactive)	> 30 µM (inactive)
CCCS(=O)(=O)Nc1ccc(F)c(C(=O)c2c[nH]c3ncc(-c4ccc(Cl)cc4)cc23)c1F [VEMURAFENIB]	> 30 µM (inactive)	> 30 µM (inactive)	> 30 µM (inactive)	> 30 µM (inactive)	> 30 µM (inactive)	> 30 µM (inactive)	> 30 µM (inactive)	> 30 µM (inactive)	> 30 µM (inactive)
CNC(=O)c1ccc(C)c(-n2c(C)cc(OCc3ccc(F)cc3F)c(Br)c2=O)c1 [PH-797804]	> 30 µM (inactive)	> 30 µM (inactive)	> 30 µM (inactive)	> 30 µM (inactive)	> 30 µM (inactive)	> 30 µM (inactive)	> 30 µM (inactive)	> 30 µM (inactive)	> 30 µM (inactive)
COC(=O)[C@@]1(O)C[C@H]2O[C@]1(C)n1c3ccccc3c3c4c(c5c6ccccc6n2c5c31)C(=O)NC4 [K-252A]	> 30 µM (inactive)	> 30 µM (inactive)	> 30 µM (inactive)	> 30 µM (inactive)	0.481 µM (active)	> 30 µM (inactive)	> 30 µM (inactive)	0.009 µM (active)	> 30 µM (inactive)
CN1CCC(COc2cnc(-c3cccc(Cn4nc(-c5cccc(C#N)c5)ccc4=O)c3)nc2)CC1 [TEPOTINIB]	> 30 µM (inactive)	> 30 µM (inactive)	> 30 µM (inactive)	> 30 µM (inactive)	> 30 µM (inactive)	> 30 µM (inactive)	> 30 µM (inactive)	> 30 µM (inactive)	> 30 µM (inactive)
COc1cc(N2CCC(N3CCN(C)CC3)CC2)ccc1Nc1ncnc(Nc2ccccc2S(=O)(=O)C(C)C)n1 [ASP-3026]	> 30 µM (inactive)	> 30 µM (inactive)	> 30 µM (inactive)	> 30 µM (inactive)	23.7 µM (active)	> 30 µM (inactive)	> 30 µM (inactive)	> 30 µM (inactive)	> 30 µM (inactive)
CNC(=O)c1ccc(-c2cnc3ncc(Cc4ccc5ncccc5c4)n3n2)cc1F [CAPMATINIB]	> 30 µM (inactive)	> 30 µM (inactive)	> 30 µM (inactive)	> 30 µM (inactive)	> 30 µM (inactive)	> 30 µM (inactive)	> 30 µM (inactive)	> 30 µM (inactive)	> 30 µM (inactive)
CCn1c(=O)c(-c2cc[nH]n2)cc2c(C)nc(N)nc21 [VOXTALISIB]	> 30 µM (inactive)	> 30 µM (inactive)	> 30 µM (inactive)	> 30 µM (inactive)	> 30 µM (inactive)	> 30 µM (inactive)	> 30 µM (inactive)	> 30 µM (inactive)	> 30 µM (inactive)
Cc1cc2c(F)c(Oc3ncnn4cc(OC[C@@H](C)OC(=O)[C@H](C)N)c(C)c34)ccc2[nH]1 [BRIVANIB ALANINATE]	> 30 µM (inactive)	> 30 µM (inactive)	> 30 µM (inactive)	> 30 µM (inactive)	8.44 µM (active)	> 30 µM (inactive)	> 30 µM (inactive)	> 30 µM (inactive)	> 30 µM (inactive)
COc1cc(OC)c(/C=C/S(=O)(=O)Cc2ccc(OC)c(NCC(=O)O)c2)c(OC)c1 [RIGOSERTIB]	> 30 µM (inactive)	> 30 µM (inactive)	> 30 µM (inactive)	> 30 µM (inactive)	> 30 µM (inactive)	> 30 µM (inactive)	> 30 µM (inactive)	> 30 µM (inactive)	> 30 µM (inactive)
Cc1ccc(-n2nc(C(C)(C)C)cc2NC(=O)NCc2cc(F)ccc2Oc2ccc3c(cnn3CCO)c2)cc1 [PEXMETINIB]	> 30 µM (inactive)	> 30 µM (inactive)	> 30 µM (inactive)	> 30 µM (inactive)	> 30 µM (inactive)	> 30 µM (inactive)	> 30 µM (inactive)	> 30 µM (inactive)	> 30 µM (inactive)
Cn1cc(-c2ccc(F)c(C(F)(F)F)c2)nc1C1CCN(c2ncnc3[nH]ncc23)CC1 [LY-2584702]	> 30 µM (inactive)	> 30 µM (inactive)	> 30 µM (inactive)	> 30 µM (inactive)	> 30 µM (inactive)	> 30 µM (inactive)	> 30 µM (inactive)	> 30 µM (inactive)	> 30 µM (inactive)
